Source: patent publication US8148391B2 (Cephalon, Inc., priority 2006, dated 2012)
pIC50: −log10 of the molar value. Read-outs that look alike come from different tables or passages of the source.

Assays:
[1] = target: T1, baculovirus-expressed ALK (Homo sapiens, UniProt Q9UM73); assay: ALK Kinase Assay (ELISA-type, time-resolved fluorescence); assay type: biochemical
T1 construct: host or cells: baculovirus expression system
Procedure, shortened: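 Substrate coating: phospholipase C-γ, 10 μg/mL in TBS. Kinase step: 30 ng/ml ALK, 15 min, 37° C. Detection and analysis: Eu-N1 PT66 antibody, with IC50 fitted as a sigmoidal variable-slope dose-response curve.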

[2] = target: T2, c-Met (cytoplasmic domain) (Homo sapiens, UniProt P08581); assay: c-Met Kinase Assay (same methods as for ALK, with modifications); assay type: biochemical
T2 construct: 10 ng/mL c-Met (cytoplasmic domain, Invitrogen Corporation #PV3143); purchased Invitrogen Corporation PV3143
Procedure, shortened: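 Wells were coated with 10 μg/mL phospholipase C-γ substrate in TBS, and reactions were started with 10 ng/mL c-Met cytoplasmic domain and run at 37° C for 15 minutes. Phosphorylated product was detected with Eu-N1-labeled PT66 antibody. IC50 values came from sigmoidal variable-slope fits of percent inhibition versus log compound concentration.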

[3] = 1 μM ATP (Km level), read-out: ALK Activity (ALK Kinase Inhibition, IC50)
[4] = 1 μM ATP (Km level), read-out: cMet Activity (c-Met Kinase Inhibition, IC50)
[5] = ALK kinase inhibition, 1 μM ATP (Km level), read-out: ALK Activity
[6] = c-Met kinase inhibition, 1 μM ATP (Km level), read-out: cMet Activity
[7] = ALK kinase inhibition, 1 μM ATP, read-out: ALK Activity
[8] = c-Met kinase inhibition, 1 μM ATP, read-out: cMet Activity
[9] = 1 μM ATP (Km level), 30 ng/ml ALK, 37° C., 15 minutes, read-out: ALK Activity (ALK kinase inhibition, IC50 class)
[10] = 1 μM ATP (Km level), 10 ng/mL c-Met, read-out: cMet Activity (c-Met kinase inhibition, IC50 class)

T2 sequence (P08581 956-1390 limits assumed): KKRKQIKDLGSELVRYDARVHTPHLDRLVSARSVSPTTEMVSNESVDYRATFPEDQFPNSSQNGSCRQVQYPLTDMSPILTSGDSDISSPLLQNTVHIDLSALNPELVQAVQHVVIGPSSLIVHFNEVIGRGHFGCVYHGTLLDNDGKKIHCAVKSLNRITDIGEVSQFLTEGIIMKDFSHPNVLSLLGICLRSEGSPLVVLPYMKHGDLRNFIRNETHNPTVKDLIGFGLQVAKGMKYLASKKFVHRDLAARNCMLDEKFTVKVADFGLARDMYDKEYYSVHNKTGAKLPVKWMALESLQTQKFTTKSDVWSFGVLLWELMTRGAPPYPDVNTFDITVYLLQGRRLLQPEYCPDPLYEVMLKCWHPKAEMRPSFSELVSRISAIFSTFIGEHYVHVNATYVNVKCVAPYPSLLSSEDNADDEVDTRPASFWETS
T1 sequence (Q9UM73 19-1620): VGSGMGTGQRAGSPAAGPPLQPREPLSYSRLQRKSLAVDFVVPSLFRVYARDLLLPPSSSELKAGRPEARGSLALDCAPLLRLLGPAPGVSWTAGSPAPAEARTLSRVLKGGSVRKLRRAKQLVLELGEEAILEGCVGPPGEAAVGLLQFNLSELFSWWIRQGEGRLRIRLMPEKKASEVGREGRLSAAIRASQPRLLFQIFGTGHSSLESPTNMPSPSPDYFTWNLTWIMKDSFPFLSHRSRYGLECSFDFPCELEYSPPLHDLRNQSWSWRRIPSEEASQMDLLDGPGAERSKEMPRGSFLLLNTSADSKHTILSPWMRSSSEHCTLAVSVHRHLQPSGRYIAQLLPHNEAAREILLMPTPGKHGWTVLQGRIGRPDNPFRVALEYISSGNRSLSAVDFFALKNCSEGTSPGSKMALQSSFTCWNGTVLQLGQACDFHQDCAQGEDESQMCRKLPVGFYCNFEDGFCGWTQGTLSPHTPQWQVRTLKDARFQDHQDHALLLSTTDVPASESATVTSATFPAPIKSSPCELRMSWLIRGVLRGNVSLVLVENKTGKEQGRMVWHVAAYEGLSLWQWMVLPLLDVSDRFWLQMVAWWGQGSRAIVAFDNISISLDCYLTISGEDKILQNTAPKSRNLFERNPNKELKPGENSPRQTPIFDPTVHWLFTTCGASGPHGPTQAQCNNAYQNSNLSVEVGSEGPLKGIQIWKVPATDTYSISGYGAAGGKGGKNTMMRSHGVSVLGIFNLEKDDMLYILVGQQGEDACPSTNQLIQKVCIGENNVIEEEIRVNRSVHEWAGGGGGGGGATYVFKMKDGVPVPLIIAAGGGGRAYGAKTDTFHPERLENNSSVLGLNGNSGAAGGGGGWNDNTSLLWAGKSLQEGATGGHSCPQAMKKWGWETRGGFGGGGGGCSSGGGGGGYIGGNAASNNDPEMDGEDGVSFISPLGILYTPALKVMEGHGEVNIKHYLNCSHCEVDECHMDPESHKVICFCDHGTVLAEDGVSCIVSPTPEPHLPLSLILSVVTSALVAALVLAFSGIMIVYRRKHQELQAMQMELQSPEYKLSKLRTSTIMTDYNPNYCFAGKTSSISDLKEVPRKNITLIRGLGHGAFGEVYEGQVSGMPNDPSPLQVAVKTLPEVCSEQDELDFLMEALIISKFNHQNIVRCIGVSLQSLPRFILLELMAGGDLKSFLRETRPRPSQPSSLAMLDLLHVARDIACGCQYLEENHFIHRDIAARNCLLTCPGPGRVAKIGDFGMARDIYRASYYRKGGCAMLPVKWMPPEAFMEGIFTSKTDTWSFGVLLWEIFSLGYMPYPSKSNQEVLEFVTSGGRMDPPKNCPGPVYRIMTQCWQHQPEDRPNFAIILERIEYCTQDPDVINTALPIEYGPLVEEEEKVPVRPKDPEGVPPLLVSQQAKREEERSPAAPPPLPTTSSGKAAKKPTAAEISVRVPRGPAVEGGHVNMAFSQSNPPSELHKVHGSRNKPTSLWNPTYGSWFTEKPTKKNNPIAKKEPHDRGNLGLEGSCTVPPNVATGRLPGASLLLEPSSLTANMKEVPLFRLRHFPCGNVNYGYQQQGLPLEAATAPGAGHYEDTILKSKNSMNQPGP

SMILES | pIC50 [1, 3] | pIC50 [2, 4] | pIC50 [1, 7] | pIC50 [2, 8] | also measured
COc1c(Nc2ncc(Cl)c(Nc3ccccc3S(=O)(=O)N(C)C)n2)ccc2c1CCC(NCC(F)(F)F)CC2 (stereo not shown) [Example 684, 2-{5-Chloro-2-[1-methoxy-7-(2,2,2-trifluoro-ethylamino)-6,7,8,9-tetrahydro-5H-benzocyclohepten-2-ylamino]-pyrimidin-4-ylamino}-N,N-dimethyl-benzenesulfonamide] | > 7.00 | < 5.00 |  |  | 
Cc1ccc(-c2ccccc2Nc2nc(Nc3ccc4c(c3)C(C)(C)CCC(=O)N4)ncc2Cl)nc1 [Example 1003, 7-{5-Chloro-4-[2-(5-methyl-pyridin-2-yl)-phenylamino]-pyrimidin-2-ylamino}-5,5-dimethyl-1,3,4,5-tetrahydro-benzo[b]azepin-2-one] | 5.00 to 6.00 | < 5.00 |  |  | 
COc1c(Nc2ncc(Cl)c(N[C@@H]3CCCC[C@H]3NS(C)(=O)=O)n2)ccc2c1CCCC(NCCO)C2 (stereo partly drawn) [Example 965, N-((1R,2R)-2-{5-Chloro-2-[6-(2-hydroxy-ethylamino)-1-methoxy-6,7,8,9-tetrahydro-5H-benzocyclohepten-2-ylamino]-pyrimidin-4-ylamino}-cyclohexyl)-methanesulfonamide] | > 7.00 | < 5.00 |  |  | 
CNC(=O)c1ccccc1Nc1nc(Nc2ccc3c(c2)CNC(=O)NC3)ncc1Cl [Example 227, 2-[5-Chloro-2-(3-oxo-2,3,4,5-tetrahydro-1H-benzo[e][1,3]diazepin-7-ylamino)-pyrimidin-4-ylamino]-N-methyl-benzamide] |  |  |  |  | pIC50 [1, 5]: > 7.00; pIC50 [2, 6]: > 7.00
CCN1CCN(CC)c2cc(Nc3ncc(Cl)c(N[C@@H]4CCCC[C@H]4NS(C)(=O)=O)n3)c(Cl)cc2C1 [Example 427, N-{(1R,2R)-2-[5-Chloro-2-(7-chloro-1,4-diethyl-2,3,4,5-tetrahydro-1H-benzo[e][1,4]diazepin-8-ylamino)-pyrimidin-4-ylamino]-cyclohexyl}-methanesulfonamide] |  |  |  |  | pIC50 [1, 5]: > 7.00; pIC50 [2, 6]: < 5.00
CNC(=O)c1sccc1Nc1nc(Nc2ccc3c(c2)-n2ccnc2CCC3)ncc1Cl [Example 1840, 3-[5-Chloro-2-(5,6-dihydro-4H-3,10b-diaza-benzo[e]azulen-9-ylamino)-pyrimidin-4-ylamino]-thiophene-2-carboxylic acid methylamide] |  |  | 6.00 to 7.00 | 6.00 to 7.00 | 
CCN1CC2CC(C1)c1cc(Nc3ncc(Cl)c(Nc4ccccc4S(=O)(=O)NC)n3)ccc12 (stereo not shown) [Example 157, 2-[5-Chloro-2-(10-ethyl-10-aza-tricyclo[6.3.1.0*2,7*]dodeca-2,4,6-trien-4-ylamino)-pyrimidin-4-ylamino]-N-methyl-benzenesulfonamide] |  |  |  |  | pIC50 [1, 5]: > 7.00; pIC50 [2, 6]: 5.00 to 6.00
CCCCNC(=O)c1ccccc1Nc1nc(Nc2ccc3c(c2)CCN(CCOC)CC3)ncc1Cl [Example 1028, N-Butyl-2-{5-chloro-2-[3-(2-methoxy-ethyl)-2,3,4,5-tetrahydro-1H-benzo[d]azepin-7-ylamino]-pyrimidin-4-ylamino}-benzamide] |  |  |  |  | pIC50 [1, 9]: > 7.00; pIC50 [2, 10]: 6.00 to 7.00
Cc1cccnc1-c1ccccc1Nc1nc(Nc2ccc3c(c2)CCC(NCC(F)(F)F)CC3)ncc1Cl (stereo not shown) [Example 657, 5-Chloro-N*4*-[2-(3-methyl-pyridin-2-yl)-phenyl]-N*2*-[7-(2,2,2-trifluoro-ethylamino)-6,7,8,9-tetrahydro-5H-benzocyclohepten-2-yl]-pyrimidine-2,4-diamine] | 6.00 to 7.00 | < 5.00 |  |  | 
CCN1C(=O)CCCc2ccc(Nc3ncc(Br)c(Nc4c(F)cccc4C(=O)NC)n3)cc21 [Example 359, 2-[5-Bromo-2-(1-ethyl-2-oxo-2,3,4,5-tetrahydro-1H-benzo[b]azepin-8-ylamino)-pyrimidin-4-ylamino]-3-fluoro-N-methyl-benzamide] |  |  |  |  | pIC50 [1, 5]: > 7.00; pIC50 [2, 6]: > 7.00
CNC(=O)c1ccccc1Nc1nc(Nc2ccc3c(c2)CCC(=O)NC3(C)C)ncc1Cl [Example 1827, 2-(5-Chloro-2-(1,1-dimethyl-3-oxo-2,3,4,5-tetrahydro-1H-benzo[c]azepin-7-ylamino)pyrimidin-4-ylamino)-N-methylbenzamide] |  |  | > 7.00 | > 7.00 | 
CCN1CC(=O)N(CC)c2cc(Nc3ncc(Cl)c(Nc4ccsc4C(=O)NC)n3)ccc2C1 [Example 1856, 3-[5-Chloro-2-(1,4-diethyl-2-oxo-2,3,4,5-tetrahydro-1H-benzo[e][1,4]diazepin-8-ylamino)-pyrimidin-4-ylamino]-thiophene-2-carboxylic acid methylamide] |  |  | > 7.00 | > 7.00 | 
COCCN1CCc2ccc(Nc3ncc(Cl)c(Nc4ccccc4S(=O)(=O)N4CCC(O)C4)n3)cc2CC1 (stereo not shown) [Example 1492, 1-(2-{5-Chloro-2-[3-(2-methoxy-ethyl)-2,3,4,5-tetrahydro-1H-benzo[d]azepin-7-ylamino]-pyrimidin-4-ylamino}-benzenesulfonyl)-pyrrolidin-3-ol] |  |  | > 7.00 | > 7.00 | 
COCCOc1ccccc1Nc1nc(Nc2ccc3c(c2)CCOC(=O)N3C)ncc1Cl [Example 1777, 2-{5-Chloro-4-[2-(2-methoxy-ethoxy)-phenylamino]-pyrimidin-2-ylamino}-5-methyl-8,9-dihydro-5H-7-oxa-5-aza-benzocyclohepten-6-one] |  |  | 6.00 to 7.00 | 6.00 to 7.00 | 
CCN1CCc2cc(Nc3ncc(Cl)c(Nc4ccc(N5CCOCC5)cc4OC)n3)c(OC)cc2CC1=O [Example 254, 7-[5-Chloro-4-(2-methoxy-4-morpholin-4-yl-phenylamino)-pyrimidin-2-ylamino]-3-ethyl-8-methoxy-1,3,4,5-tetrahydro-benzo[d]azepin-2-one] |  |  |  |  | pIC50 [1, 5]: > 7.00; pIC50 [2, 6]: < 5.00
COc1cc2c(cc1Nc1ncc(Cl)c(N[C@H]3[C@@H](C(N)=O)[C@@H]4C=C[C@H]3C4)n1)CCN(CC(C)(F)F)CC2 [Example 782, (1S,2S,3R,4R)-3-{5-Chloro-2-[3-(2,2-difluoro-propyl)-8-methoxy-2,3,4,5-tetrahydro-1H-benzo[d]azepin-7-ylamino]-pyrimidin-4-ylamino}-bicyclo[2.2.1]hept-5-ene-2-carboxylic acid amide] | > 7.00 | < 5.00 |  |  | 
CNS(=O)(=O)c1ccccc1Nc1nc(Nc2ccc3c(c2)C2CCC3CN(C(C)=O)C2)ncc1Cl (stereo not shown) [Example 289, 2-[2-(10-Acetyl-10-aza-tricyclo[6.3.2.0*2,7*]trideca-2,4,6-trien-4-ylamino)-5-chloro-pyrimidin-4-ylamino]-N-methyl-benzenesulfonamide] |  |  |  |  | pIC50 [1, 5]: > 7.00; pIC50 [2, 6]: 6.00 to 7.00
CNC(=O)c1ccccc1Nc1nc(Nc2ccc3c(c2)CNC(=O)CC3)ncc1Cl [Example 1794, 2-[5-Chloro-2-(3-oxo-2,3,4,5-tetrahydro-1H-benzo[c]azepin-8-ylamino)-pyrimidin-4-ylamino]-N-methylbenzamide] |  |  | > 7.00 | > 7.00 | 
COc1ccc(Nc2nc(Nc3ccc4c(c3)C(C)(C)CCC(=O)N4C)ncc2Cl)c(-n2cccn2)c1 [Example 619, 7-[5-Chloro-4-(4-methoxy-2-pyrazol-1-yl-phenylamino)-pyrimidin-2-ylamino]-1,5,5-trimethyl-1,3,4,5-tetrahydro-benzo[b]azepin-2-one] | > 7.00 | 6.00 to 7.00 |  |  | 
CCN1C(=O)C(NC(=O)C(F)(F)F)CCc2c1ccc(Nc1ncc(Cl)c(N[C@H]3[C@@H](C(N)=O)[C@@H]4C=C[C@H]3C4)n1)c2OC (stereo partly drawn) [Example 1330, (1S,2S,3R,4R)-3-{5-Chloro-2-[1-ethyl-6-methoxy-2-oxo-3-(2,2,2-trifluoro-acetylamino)-2,3,4,5-tetrahydro-1H-benzo[b]azepin-7-ylamino]-pyrimidin-4-ylamino}-bicyclo[2.2.1]hept-5-ene-2-carboxylic acid amide] |  |  |  |  | pIC50 [1, 9]: > 7.00; pIC50 [2, 10]: < 5.00
CNC(=O)c1cccc(F)c1Nc1nc(Nc2ccc3c(c2)N(C(C)C)C(=O)CCC3)ncc1Cl [Example 1474, 2-[5-Chloro-2-(1-isopropyl-2-oxo-2,3,4,5-tetrahydro-1H-benzo[b]azepin-8-ylamino)-pyrimidin-4-ylamino]-3-fluoro-N-methyl-benzamide] |  |  | > 7.00 | 6.00 to 7.00 | 
CCN1CCNCc2cc(OC)c(Nc3ncc(Cl)c(N[C@H]4[C@@H](C(N)=O)[C@@H]5C=C[C@H]4C5)n3)cc21 [Example 1460, (1S,2S,3R,4R)-3-[5-Chloro-2-(1-ethyl-7-methoxy-2,3,4,5-tetrahydro-1H-benzo[e][1,4]diazepin-8-ylamino)-pyrimidin-4-ylamino]-bicyclo[2.2.1]hept-5-ene-2-carboxylic acid amide] |  |  | > 7.00 | < 5.00 | 
COc1cc2c(cc1Nc1ncc(Cl)c(Nc3ccc(Cl)cc3S(=O)(=O)N(C)C)n1)CCN(CC(=O)N1CCOCC1)CC2 [Example 841, 5-Chloro-2-{5-chloro-2-[8-methoxy-3-(2-morpholin-4-yl-2-oxo-ethyl)-2,3,4,5-tetrahydro-1H-benzo[d]azepin-7-ylamino]-pyrimidin-4-ylamino}-N,N-dimethyl-benzenesulfonamide] | > 7.00 | < 5.00 |  |  | 
